# Measurements: patent US12617783B2, “Heterocyclic GLP-1R agonists” (BIOMEA FUSION, INC., priority 2024, dated 2026)
# Target: T1, human GLP-1R (Homo sapiens, UniProt P43220)
# T1 construct: host or cells: HEK293
# Assay: GLP-1R cAMP assay (Example B1a, HTRF, 30 min at room temperature)
# Assay type: cell-based
# Conditions: cAMP accumulation in HEK293 expressing human GLP-1R, no BETP, 30 min room temperature (Method B1a, compounds ID 1-609), Table 1; read-out: EC50
# How it was run: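 Competitive HTRF read-out of cAMP after 30 min room-temperature stimulation, BETP absent, of human GLP-1R-HEK293 cells (1,000/well) in HEPES buffer with 500 μM IBMX and 0.1% BSA. Activation normalised to GLP-1(7-37) positive control. EC50 from 4-parameter non-linear regression.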
# T1 sequence (P43220 24-463): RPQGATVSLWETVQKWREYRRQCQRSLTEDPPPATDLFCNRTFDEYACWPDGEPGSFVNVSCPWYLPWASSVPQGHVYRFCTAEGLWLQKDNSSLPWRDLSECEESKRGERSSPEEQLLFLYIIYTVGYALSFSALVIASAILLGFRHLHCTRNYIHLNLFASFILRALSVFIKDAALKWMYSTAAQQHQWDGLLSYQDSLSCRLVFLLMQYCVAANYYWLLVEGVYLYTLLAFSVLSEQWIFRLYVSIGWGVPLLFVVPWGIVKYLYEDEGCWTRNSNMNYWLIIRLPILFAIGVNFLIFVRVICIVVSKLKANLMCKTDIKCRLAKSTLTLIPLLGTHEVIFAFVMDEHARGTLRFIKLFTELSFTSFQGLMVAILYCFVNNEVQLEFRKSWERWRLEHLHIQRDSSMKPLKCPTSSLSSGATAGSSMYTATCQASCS
row,Structure (SMILES),EC50 [nM]
1,"Cc1cc(-n2nc3c(c2-n2ccn(-c4ccc5c(cnn5C)c4F)c2=O)[C@@H]2CC[C@H](C3)N2C(=O)c2cc3cc([C@H]4CCOC(C)(C)C4)ccc3n2C(=O)c2noc(=O)[nH]2)cc(C)c1F [Compound 122, 3-[5-[(4S)-2,2-dimethyltetrahydropyran-4-yl]-2-[(1S,8R)-4-(4-fluoro-3,5-dimethyl-phenyl)-3-[3-(4-fluoro-1-methyl-indazol-5-yl)-2-oxo-imidazol-1-yl]-4,5,11-triazatricyclo[6.2.1.02,6]undeca-2,5-diene-11-carbonyl]indole-1-carbonyl]-4H-1,2,4-oxadiazol-5-one]",> 10000
2,"Cc1cc(-n2nc3c(c2-n2ccn(-c4ccc5c(cnn5C)c4F)c2=O)[C@@H]2CCC[C@H](C3)N2S(=O)(=O)c2cc3cc([C@H]4CCOC(C)(C)C4)ccc3n2C2(c3noc(=O)[nH]3)C[C@@H]2C)cc(C)c1F (stereo partly drawn) [Compound 527, 3-[(2S)-1-[5-[(4S)-2,2-dimethyltetrahydropyran-4-yl]-2-[[(1S,8R)-4-(4-fluoro-3,5-dimethyl-phenyl)-3-[3-(4-fluoro-1-methyl-indazol-5-yl)-2-oxo-imidazol-1-yl]-4,5,12-triazatricyclo[6.3.1.02,6]dodeca-2,5-dien-12-yl]sulfonyl]indol-1-yl]-2-methyl-cyclopropyl]-4H-1,2,4-oxadiazol-5-one]",975
3,"Cc1cc(-n2nc3c(c2-n2ccn(-c4ccc5c(cnn5C)c4F)c2=O)[C@H](C)N(C(=O)c2cc4cc([C@H]5CCOC(C)(C)C5)ccc4n2[C@@]2(c4noc(=O)[nH]4)C[C@@H]2C)CCC3)cc(C)c1F [Compound 518, 3-[(1S,2S)-1-[5-[(4S)-2,2-dimethyltetrahydropyran-4-yl]-2-[(4S)-2-(4-fluoro-3,5-dimethyl-phenyl)-3-[3-(4-fluoro-1-methyl-indazol-5-yl)-2-oxo-imidazol-1-yl]-4-methyl-4,6,7,8-tetrahydropyrazolo[4,3-c]azepine-5-carbonyl]indol-1-yl]-2-methyl-cyclopropyl]-4H-1,2,4-oxadiazol-5-one]",73.5
4,"Cc1cc(-n2nc3c(c2-n2ccn(-c4ccc5c(cnn5C)c4F)c2=O)[C@H]2CC[C@@H](CC3)N2C(=O)c2cc3cc([C@H]4CCOC(C)(C)C4)ccc3n2[C@@]2(c3noc(=O)[nH]3)C[C@@H]2C)cc(C)c1F [Compound 524, 3-[(1S,2S)-1-[5-[(4S)-2,2-dimethyltetrahydropyran-4-yl]-2-[(1R,9S)-4-(4-fluoro-3,5-dimethyl-phenyl)-3-[3-(4-fluoro-1-methyl-indazol-5-yl)-2-oxo-imidazol-1-yl]-4,5,12-triazatricyclo[7.2.1.02,6]dodeca-2,5-diene-12-carbonyl]indol-1-yl]-2-methyl-cyclopropyl]-4H-1,2,4-oxadiazol-5-one]",≥ 10000
5,"Cc1cc(-n2nc3c(c2-n2ccn(-c4ccc5c(cnn5C)c4F)c2=O)[C@@H]2CC[C@H](C3)N2C(=O)c2cc3cc([C@@H]4CCOC(C)(C)C4)ncc3n2[C@@]2(c3noc(=O)[nH]3)C[C@@H]2C)cc(C)c1F [Compound 212, 3-((1S,2S)-1-(5-((R)-2,2-dimethyltetrahydro-2H-pyran-4-yl)-2-((4S,7R)-3-(3-(4-fluoro-1-methyl-1H-indazol-5-yl)-2-oxo-2,3-dihydro-1H-imidazol-1-yl)-2-(4-fluoro-3,5-dimethylphenyl)-2,4,5,6,7,8-hexahydro-4,7-epiminocyclohepta [c]pyrazole-9-carbonyl)-1H-pyrrolo[2,3-c]pyridin-1-yl)-2-methylcyclopropyl)-1,2,4-oxadiazol-5 (4H)-one]",697
6,"Cc1cc(-n2nc3c(c2-n2ccn(-c4ccc5c(cnn5C)c4F)c2=O)C2CCC(C3)N2C(=O)c2cc3cc([C@H]4CCOC(C)(C)C4)ccc3n2[C@@]2(c3noc(=O)[nH]3)C[C@@H]2C)cc(C)c1F (stereo partly drawn) [Compound 32, 3-((1S,2S)-1-(5-((S)-2,2-dimethyltetrahydro-2H-pyran-4-yl)-2-(3-(3-(4-fluoro-1-methyl-1H-indazol-5-yl)-2-oxo-2,3-dihydro-1H-imidazol-1-yl)-2-(4-fluoro-3,5-dimethylphenyl)-2,4,5,6,7,8-hexahydro-4,7-epiminocyclohepta [c]pyrazole-9-carbonyl)-1H-indol-1-yl)-2-methylcyclopropyl)-1,2,4-oxadiazol-5 (4H)-one]",92.6
7,"Cc1cc(-n2nc3c(c2-n2ccn(-c4ccc5c(cnn5C)c4F)c2=O)[C@H]2CC[C@@H](C3)N2C(=O)c2cc3cc([C@@H]4CCOC5(CC5)C4)ccc3n2[C@]2(c3noc(=O)[nH]3)C[C@H]2C)cc(C)c1F [Compound 517, 3-[(1R,2R)-1-[2-[(1R,8S)-4-(4-fluoro-3,5-dimethyl-phenyl)-3-[3-(4-fluoro-1-methyl-indazol-5-yl)-2-oxo-imidazol-1-yl]-4,5,11-triazatricyclo[6.2.1.02,6]undeca-2,5-diene-11-carbonyl]-5-[(7R)-4-oxaspiro[2.5]octan-7-yl]indol-1-yl]-2-methyl-cyclopropyl]-4H-1,2,4-oxadiazol-5-one]",≥ 10000
8,"Cc1cc(-n2nc3c(c2-n2ccn(-c4ccc5c(cnn5C)c4F)c2=O)[C@@H]2CC[C@H](C3)N2C(=O)c2cc3sc([C@@H]4CCOC(C)(C)C4)nc3n2[C@@]2(c3noc(=O)[nH]3)C[C@@H]2C)cc(C)c1F [Compound 307, 3-[(1S,2S)-1-[2-[(4R)-2,2-dimethyltetrahydropyran-4-yl]-5-[(1S,8R)-4-(4-fluoro-3,5-dimethyl-phenyl)-3-[3-(4-fluoro-1-methyl-indazol-5-yl)-2-oxo-imidazol-1-yl]-4,5,11-triazatricyclo[6.2.1.02,6]undeca-2,5-diene-11-carbonyl]pyrrolo[2,3-d]thiazol-4-yl]-2-methyl-cyclopropyl]-4H-1,2,4-oxadiazol-5-one]",> 10000
9,"Cc1cc(-n2nc3c(c2-n2ccn(-c4ccc5c(cnn5C)c4)c2=O)[C@@H]2CC[C@H](C3)N2C(=O)c2cc3cc([C@H]4CCOC5(CC5)C4)ccc3n2[C@@]2(c3noc(=O)[nH]3)C[C@@H]2C)cc(C)c1F [Compound 323, 3-[(1S,2S)-1-[2-[(1S,8R)-4-(4-fluoro-3,5-dimethyl-phenyl)-3-[3-(1-methylindazol-5-yl)-2-oxo-imidazol-1-yl]-4,5,11-triazatricyclo[6.2.1.02,6]undeca-2,5-diene-11-carbonyl]-5-[(7S)-4-oxaspiro[2.5]octan-7-yl]indol-1-yl]-2-methyl-cyclopropyl]-4H-1,2,4-oxadiazol-5-one]",79.3
10,"Cc1cc(-n2nc3c(c2-n2ccn(-c4ccc5c(cnn5C)c4F)c2=O)[C@@H]2COC[C@H](C3)N2S(=O)(=O)c2cc3cc(C4CCOCC4)ccc3n2[C@@]2(c3noc(=O)[nH]3)C[C@@H]2C)cc(C)c1F [Compound 526, 3-[(1S,2S)-1-[2-[[(1R,8S)-4-(4-fluoro-3,5-dimethyl-phenyl)-3-[3-(4-fluoro-1-methyl-indazol-5-yl)-2-oxo-imidazol-1-yl]-10-oxa-4,5,12-triazatricyclo[6.3.1.02,6]dodeca-2,5-dien-12-yl]sulfonyl]-5-tetrahydropyran-4-yl-indol-1-yl]-2-methyl-cyclopropyl]-4H-1,2,4-oxadiazol-5-one]",1130
11,"Cc1cc(-n2nc3c(c2-n2ccn(-c4ccc5c(cnn5C)c4F)c2=O)[C@@H]2CC[C@H](C3)N2C(=O)c2cc3cc([C@H]4CCOC(C)(C)C4)ccc3n2[C@@]2(C#N)C[C@@H]2C)cc(C)c1F [Compound 137, trans-(1S,2S)-1-[5-[(4S)-2,2-dimethyltetrahydropyran-4-yl]-2-[(1S,8R)-4-(4-fluoro-3,5-dimethyl-phenyl)-3-[3-(4-fluoro-1-methyl-indazol-5-yl)-2-oxo-imidazol-1-yl]-4,5,11-triazatricyclo[6.2.1.02,6]undeca-2,5-diene-11-carbonyl]indol-1-yl]-2-methyl-cyclopropanecarbonitrile]",> 10000
12,"Cc1cc(-n2nc3c(c2-n2ccn(-c4ccc5c(cnn5C)c4F)c2=O)[C@@H]2CC[C@H](C3)N2Cc2cc3cc([C@H]4CCOC(C)(C)C4)ccc3n2[C@@]2(c3noc(=O)[nH]3)C[C@@H]2C)cc(C)c1F [Compound 417, 3-((1S,2S)-1-(5-((S)-2,2-dimethyltetrahydro-2H-pyran-4-yl)-2-(((4S,7R)-3-(3-(4-fluoro-1-methyl-1H-indazol-5-yl)-2-oxo-2,3-dihydro-1H-imidazol-1-yl)-2-(4-fluoro-3,5-dimethylphenyl)-2,4,5,6,7,8-hexahydro-4,7-epiminocyclohepta [c]pyrazol-9-yl)methyl)-1H-indol-1-yl)-2-methylcyclopropyl)-1,2,4-oxadiazol-5(4H)-one]",110
13,"Cc1cc(-n2nc3c(c2-n2ccn(-c4ccc(CS(C)(=O)=O)cc4)c2=O)[C@@H]2CCC[C@H](C3)N2C(=O)c2cc3cc([C@H]4CCOC(C)(C)C4)ccc3n2[C@@]2(c3noc(=O)[nH]3)C[C@@H]2C)cc(C)c1F [Compound 546, 3-[(1S,2S)-1-[5-[(4S)-2,2-dimethyltetrahydropyran-4-yl]-2-[(1S,8R)-4-(4-fluoro-3,5-dimethyl-phenyl)-3-[3-[4-(methylsulfonylmethyl)phenyl]-2-oxo-imidazol-1-yl]-4,5,12-triazatricyclo[6.3.1.02,6]dodeca-2,5-diene-12-carbonyl]indol-1-yl]-2-methyl-cyclopropyl]-4H-1,2,4-oxadiazol-5-one]",≥ 10000
14,"Cc1cc(-n2nc3c(c2-n2ccn(-c4ccc5c(c4)N(C)C(=O)C54CC4)c2=O)[C@@H]2CCC[C@H](C3)N2C(=O)c2cc3cc([C@H]4CCOC(C)(C)C4)ccc3n2[C@@]2(c3noc(=O)[nH]3)C[C@@H]2C)cc(C)c1F [Compound 545, 3-[(1S,2S)-1-[5-[(4S)-2,2-dimethyltetrahydropyran-4-yl]-2-[(1S,8R)-4-(4-fluoro-3,5-dimethyl-phenyl)-3-[3-(l′-methyl-2′-oxo-spiro[cyclopropane-1,3′-indoline]-6′-yl)-2-oxo-imidazol-1-yl]-4,5,12-triazatricyclo[6.3.1.02,6]dodeca-2,5-diene-12-carbonyl]indol-1-yl]-2-methyl-cyclopropyl]-4H-1,2,4-oxadiazol-5-one]",307
